Laboratory results taken from patent publication US20070149580A1, “USE OF PEROXISOME PROLIFERATOR ACTIVATED RECEPTOR DELTA AGONISTS FOR THE TREATMENT OF MS AND OTHER DEMYELINATING DISEASES” (AVENTIS PHARMACEUTICALS INC., priority 2004, published 2007).

Molecular target: T1, Human PPAR gamma (Homo sapiens, UniProt P37231)
T1 construct: expressed in transfected cells
T1 sequence (P37231 1-505): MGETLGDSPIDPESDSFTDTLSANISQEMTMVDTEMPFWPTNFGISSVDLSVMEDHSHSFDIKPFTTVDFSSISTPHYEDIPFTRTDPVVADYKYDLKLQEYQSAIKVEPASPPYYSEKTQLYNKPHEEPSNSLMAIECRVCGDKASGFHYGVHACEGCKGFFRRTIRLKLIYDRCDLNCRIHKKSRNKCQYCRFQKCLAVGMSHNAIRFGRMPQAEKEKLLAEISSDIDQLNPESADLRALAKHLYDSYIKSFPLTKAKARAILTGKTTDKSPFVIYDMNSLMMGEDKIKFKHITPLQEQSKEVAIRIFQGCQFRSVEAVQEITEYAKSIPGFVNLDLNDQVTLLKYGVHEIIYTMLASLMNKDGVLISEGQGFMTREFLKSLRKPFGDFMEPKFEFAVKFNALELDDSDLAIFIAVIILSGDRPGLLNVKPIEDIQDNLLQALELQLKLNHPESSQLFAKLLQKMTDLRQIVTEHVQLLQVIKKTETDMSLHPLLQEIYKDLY
Assay: Cellular PPAR gamma luciferase reporter assay
Format: cell-based
Method: Cell Based PPAR Gamma Assay Protocol
To perform cell based assays a luciferase assay is performed in 96 well plates as follows:
Dilution steps and addition of diluted compounds is done using a Beckman Biomek 2000 or Beckman FX robot.
• Aspirate medium from cells • Freeze plates at −20° C. (optional) • Thaw plates for 30 min (if necessary) • Add 50 μl Bright-Glo-Luciferase Assay Reagent (Promega, Cat. No. E2650) • Incubate for 10 min in the dark • Measure luminescence 2 sec per well (Wallac Microbeta) Data Analysis: […]

SMILES: CCCc1c(OCCCOc2ccc(OCC(=O)O)cc2)ccc(C(C)=O)c1O [Compound 2]
- EC50: 1100 nM
